Results published in paper PMC6467784 (Journal of medicinal chemistry, 2019).

Assays:
rA2AAR = conditions: read-out: A2AAR Ki; rat (r); ref [17],[23],[30],[33],[34],[43],[45]; cited from earlier work
[1] = tested on: off-target receptors and transporters; experiment: PDSP off-target screen; type: binding, human
hA2AAR = hA2AAR (Homo sapiens, UniProt P29274); conditions: read-out: A2AAR Ki; human (h); ref [1],[17],[23],[30],[32]-[35],[43],[45]; cited from earlier work
hA1AR = target: T1, hA1AR (Homo sapiens, UniProt P30542); conditions: read-out: A1AR Ki; human (h); ref [1],[17],[23],[30],[32]-[36],[43]-[45]; cited from earlier work
T1 sequence (P30542 1-326): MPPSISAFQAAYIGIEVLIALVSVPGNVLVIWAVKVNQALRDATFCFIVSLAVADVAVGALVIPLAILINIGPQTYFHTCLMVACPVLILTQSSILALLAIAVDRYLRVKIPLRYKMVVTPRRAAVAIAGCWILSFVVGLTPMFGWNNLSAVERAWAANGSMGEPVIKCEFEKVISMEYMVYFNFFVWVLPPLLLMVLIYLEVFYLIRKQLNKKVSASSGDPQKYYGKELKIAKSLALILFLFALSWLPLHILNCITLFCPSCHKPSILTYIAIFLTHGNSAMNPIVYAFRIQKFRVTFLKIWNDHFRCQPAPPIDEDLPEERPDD

hA3AR = hA3AR (Homo sapiens, UniProt P0DMS8); conditions: read-out: A3AR Ki; human (h); ref [1],[17],[23],[30],[32]-[35],[43],[45]; cited from earlier work
σ1 = σ1 (Homo sapiens, UniProt Q99720); experiment: PDSP off-target binding, σ1
rA1AR = rA1AR (Rattus norvegicus, UniProt P25099); conditions: read-out: A1AR Ki; rat (r); ref [17],[23],[30],[33],[34],[43],[45]; cited from earlier work
mouse = conditions: 60 mg/kg
female rhesus monkeys = experiment: Tolerability in female rhesus monkeys; type: in vivo, rhesus monkey; conditions: 1 or 3 mg/kg in a food treat; up to 4 h post-dosing
anesthetized rat = experiment: Cardiovascular effects in the anesthetized rat; type: in vivo; conditions: 3 mg/kg, ip., preliminary
A1AR, A3AR = conditions: ref [30]; cited from earlier work
GPCR assays = experiment: Broad GPCR screening; type: cell-based; conditions: at 10 μM; DiscoverX
[2] = Stability in simulated intestinal fluid; type: in vitro ADME
403 kinases = experiment: Kinase screen; type: binding; conditions: at 10 μM; among 403 kinases
Human liver microsomes = type: in vitro ADME
wild-type C57BL/6J mice = conditions: 3 mg/kg ip.; average from dosing to 60 min; ref [30]; cited from earlier work
[3] = Pharmacokinetics in male cynomolgus monkeys; type: in vivo, cynomolgus monkey; conditions: one-day observation period
5HT2C = 5HT2C (Homo sapiens, UniProt P28335); experiment: PDSP off-target binding, 5HT2C; conditions: read-out: Off-target Ki, 5HT2C
mA3AR = mA3AR (Mus musculus, UniProt Q61618); conditions: read-out: A3AR Ki; mouse (m); ref [17],[23],[30],[32]-[34],[43],[45]; cited from earlier work
DAT = DAT (Homo sapiens, UniProt Q01959); experiment: PDSP off-target binding, DAT; conditions: read-out: Off-target Ki, DAT
mA1AR = target: T2, mA1AR (Mus musculus, UniProt Q60612); conditions: read-out: A1AR Ki; mouse (m); ref [17],[23],[30],[32]-[34],[36],[43]-[45]; cited from earlier work
T2 sequence (Q60612 1-326): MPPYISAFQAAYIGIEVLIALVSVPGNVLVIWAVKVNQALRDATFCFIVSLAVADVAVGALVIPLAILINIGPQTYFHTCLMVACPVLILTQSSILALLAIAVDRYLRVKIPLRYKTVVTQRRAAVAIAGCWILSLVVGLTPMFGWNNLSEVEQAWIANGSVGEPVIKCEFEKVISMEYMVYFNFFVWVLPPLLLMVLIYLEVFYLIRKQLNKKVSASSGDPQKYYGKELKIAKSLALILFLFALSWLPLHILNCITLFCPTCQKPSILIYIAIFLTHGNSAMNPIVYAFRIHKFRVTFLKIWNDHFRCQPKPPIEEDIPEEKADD

mA2AAR = mA2AAR (Mus musculus, UniProt Q60613); conditions: mouse (m); at 10 μM; ref [30],[33],[34],[43]; cited from earlier work
Chain of mA2AAR (Q60613 whole entry): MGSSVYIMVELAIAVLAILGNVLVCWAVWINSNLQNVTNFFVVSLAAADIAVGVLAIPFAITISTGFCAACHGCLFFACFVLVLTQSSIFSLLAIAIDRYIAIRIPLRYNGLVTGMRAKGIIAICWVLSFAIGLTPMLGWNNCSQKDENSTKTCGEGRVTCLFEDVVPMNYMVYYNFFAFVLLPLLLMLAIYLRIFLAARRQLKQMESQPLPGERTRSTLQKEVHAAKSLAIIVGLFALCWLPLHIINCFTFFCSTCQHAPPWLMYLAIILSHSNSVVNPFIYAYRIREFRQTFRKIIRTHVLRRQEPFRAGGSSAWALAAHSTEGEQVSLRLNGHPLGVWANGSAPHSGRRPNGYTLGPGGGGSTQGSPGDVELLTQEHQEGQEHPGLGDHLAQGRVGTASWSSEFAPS

Chain of hA2AAR (P29274 whole entry): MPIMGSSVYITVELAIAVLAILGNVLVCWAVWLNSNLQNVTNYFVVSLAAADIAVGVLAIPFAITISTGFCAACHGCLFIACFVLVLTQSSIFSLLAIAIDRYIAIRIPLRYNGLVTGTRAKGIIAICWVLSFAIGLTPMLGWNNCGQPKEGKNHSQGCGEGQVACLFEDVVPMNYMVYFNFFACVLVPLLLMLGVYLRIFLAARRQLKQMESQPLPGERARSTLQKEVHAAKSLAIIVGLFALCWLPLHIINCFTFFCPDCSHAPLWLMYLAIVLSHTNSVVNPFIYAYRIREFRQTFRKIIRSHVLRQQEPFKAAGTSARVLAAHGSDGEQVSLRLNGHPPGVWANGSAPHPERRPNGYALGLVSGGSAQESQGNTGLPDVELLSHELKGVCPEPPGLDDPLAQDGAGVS
Chain of hA3AR (P0DMS8 whole entry): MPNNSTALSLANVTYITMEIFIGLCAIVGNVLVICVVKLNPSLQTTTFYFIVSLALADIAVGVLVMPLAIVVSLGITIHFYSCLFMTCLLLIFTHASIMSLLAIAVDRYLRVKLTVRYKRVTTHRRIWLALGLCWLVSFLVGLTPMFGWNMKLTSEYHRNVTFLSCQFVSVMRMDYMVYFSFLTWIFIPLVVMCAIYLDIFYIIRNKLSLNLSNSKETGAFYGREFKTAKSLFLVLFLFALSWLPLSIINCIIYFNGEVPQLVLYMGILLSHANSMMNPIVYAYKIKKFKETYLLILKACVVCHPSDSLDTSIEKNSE
Chain of mA3AR (Q61618 whole entry): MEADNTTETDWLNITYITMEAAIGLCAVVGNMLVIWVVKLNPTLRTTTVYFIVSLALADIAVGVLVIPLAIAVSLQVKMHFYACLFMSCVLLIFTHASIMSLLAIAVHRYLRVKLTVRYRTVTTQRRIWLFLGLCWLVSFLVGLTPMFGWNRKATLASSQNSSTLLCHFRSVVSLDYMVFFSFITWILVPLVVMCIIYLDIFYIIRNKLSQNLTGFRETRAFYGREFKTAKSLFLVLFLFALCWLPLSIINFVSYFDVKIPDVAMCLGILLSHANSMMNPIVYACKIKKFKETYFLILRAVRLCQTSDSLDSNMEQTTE
Chain of DAT (Q01959 whole entry): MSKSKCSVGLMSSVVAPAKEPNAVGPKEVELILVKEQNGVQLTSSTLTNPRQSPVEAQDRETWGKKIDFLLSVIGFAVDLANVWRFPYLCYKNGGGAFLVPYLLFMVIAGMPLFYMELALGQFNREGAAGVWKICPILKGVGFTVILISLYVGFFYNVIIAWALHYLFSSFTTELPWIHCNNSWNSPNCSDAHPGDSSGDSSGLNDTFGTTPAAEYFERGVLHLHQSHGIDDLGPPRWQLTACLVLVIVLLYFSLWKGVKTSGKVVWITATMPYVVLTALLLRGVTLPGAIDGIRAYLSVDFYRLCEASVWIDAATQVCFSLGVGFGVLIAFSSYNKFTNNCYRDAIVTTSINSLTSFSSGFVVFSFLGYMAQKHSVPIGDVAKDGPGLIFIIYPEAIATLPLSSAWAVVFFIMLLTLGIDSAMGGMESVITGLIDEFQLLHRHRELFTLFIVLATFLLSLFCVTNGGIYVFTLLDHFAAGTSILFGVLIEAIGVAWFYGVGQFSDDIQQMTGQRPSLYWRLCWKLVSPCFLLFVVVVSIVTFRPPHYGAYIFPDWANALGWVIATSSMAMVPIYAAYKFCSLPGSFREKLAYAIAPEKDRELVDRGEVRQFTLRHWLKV
Chain of 5HT2C (P28335 33-458): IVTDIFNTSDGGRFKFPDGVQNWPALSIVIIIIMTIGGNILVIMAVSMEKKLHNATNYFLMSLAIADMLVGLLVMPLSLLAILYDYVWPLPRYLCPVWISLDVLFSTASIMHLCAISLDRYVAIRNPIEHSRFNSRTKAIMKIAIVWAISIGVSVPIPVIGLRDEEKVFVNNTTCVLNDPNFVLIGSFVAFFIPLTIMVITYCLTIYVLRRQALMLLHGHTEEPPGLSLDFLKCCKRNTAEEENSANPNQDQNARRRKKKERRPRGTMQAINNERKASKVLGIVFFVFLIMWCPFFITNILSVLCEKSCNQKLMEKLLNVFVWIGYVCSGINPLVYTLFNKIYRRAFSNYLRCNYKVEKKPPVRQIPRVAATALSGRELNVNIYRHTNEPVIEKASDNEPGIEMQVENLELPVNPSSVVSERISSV
Chain of σ1 (Q99720 whole entry): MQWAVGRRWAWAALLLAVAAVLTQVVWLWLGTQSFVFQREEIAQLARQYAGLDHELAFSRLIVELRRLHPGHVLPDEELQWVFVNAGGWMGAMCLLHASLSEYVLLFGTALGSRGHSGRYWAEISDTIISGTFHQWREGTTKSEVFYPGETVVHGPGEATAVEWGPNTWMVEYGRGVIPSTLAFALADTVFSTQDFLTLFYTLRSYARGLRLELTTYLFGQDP
Chain of rA1AR (P25099 whole entry): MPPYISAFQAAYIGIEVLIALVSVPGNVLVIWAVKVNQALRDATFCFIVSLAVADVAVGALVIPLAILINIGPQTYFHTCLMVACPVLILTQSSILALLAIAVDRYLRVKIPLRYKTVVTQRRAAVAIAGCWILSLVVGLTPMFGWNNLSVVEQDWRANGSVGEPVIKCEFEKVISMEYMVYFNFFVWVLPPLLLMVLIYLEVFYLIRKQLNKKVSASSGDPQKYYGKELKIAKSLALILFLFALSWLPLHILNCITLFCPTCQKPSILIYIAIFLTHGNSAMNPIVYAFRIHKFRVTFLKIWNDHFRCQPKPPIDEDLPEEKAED

In the case of `OC[C@H]1O[C@@H](n2cnc3c(NC(C4CC4)C4CC4)ncnc32)[C@H](O)[C@@H]1O` [Compound 8], the Ki (rA2AAR) is given as 1370 nM, the “Off-target, receptor: interactions found” value [1] is given as “none” and the Ki (hA2AAR) is given as 1470 ± 380 nM. The Ki (hA1AR) was 0.85 ± 0.27 nM and the Ki (hA3AR) was 41.3 ± 5.3 nM.
With `CNC(=O)[C@]12C[C@@H]1[C@@H](n1cnc3c(NC4CCCC4)nc(Cl)nc31)[C@H](O)[C@@H]2O` [Compound 6] the Ki (σ1) was 1550 nM.
In the case of `Nc1nc(Cl)nc2c1ncn2[C@H]1[C@H](O)[C@H](O)[C@]2(CO)C[C@H]12` [Compound 21], the Ki (rA1AR) is listed as 273 nM and the “Off-target, receptor: interactions found” value [1] is listed as “none”.
For `O[C@@H]1[C@H](O)[C@@H]2C[C@@H]2[C@H]1n1cnc2c(NC(C3CC3)C3CC3)nc(Cl)nc21` [Compound 7], the “Lethality in the mouse” value (mouse) was “non-lethal”, the “Adverse reaction after oral dosing” value (female rhesus monkeys) was “no adverse reaction” and the “Effects on heart rate and blood pressure” value (anesthetized rat) was “modest effects on heart rate (slow onset of reduction) and blood pressure (a modest, transient rise)”. The ARs causing hypothermia (A1AR, A3AR) was “A3AR >> A1AR[30]”, the “Broad GPCR screening result” value (GPCR assays) was “not promiscuous” and the “Stability in simulated intestinal fluid” value [2] was “stable”. The “Hits in kinase screen” value (403 kinases) was “only two weak hits”, the “Stability in human liver microsomes” value (Human liver microsomes) was “stable” and the Tb (wild-type C57BL/6J mice) was 33.4±1.7 °C. For the same compound, the Clinical observations [3] was “no clinical observations”.
In the case of `OCC12CC1C(n1cnc3c(NC(C4CC4)C4CC4)nc(Cl)nc31)C(O)C2O` (centres unmarked) [Compound 23], the Ki (5HT2C) is given as 1850 nM, the Ki (mA3AR) is given as 1030 nM and the Ki (DAT) is given as 4.75 µM. For the same compound, the Ki (hA2AAR) was 2200 nM, the Ki (mA1AR) was 0.71 nM and the Ki (hA1AR) was 39 ± 17 nM. The A2AAR % inhibition (mA2AAR) was 41±9% and the Ki (hA3AR) was 1600 ± 210 nM.
